Test results from article PMC9555310, “Novel inhibitors and activity-based probes targeting serine proteases” (Frontiers in Chemistry, 2022).

Tests used:
chymotrypsin = target: T1, chymotrypsin (Bos taurus, UniProt P00766); test: Off-target study, residual activity after 2 min pre-incubation: chymotrypsin; assay type: biochemical, bovine; details: 2 min incubation, PBS pH 7.4, 37°C; for off-target inhibition of chymotrypsin: residual activity vs DMF control, NAP830 at concentrations up to 50 μM
T1 construct: purchased Sigma-Aldrich (supplement); Calbiochem; host or cells: bovine pancreas
Description: (§1) FIGURE 5 Results of “off-target“ studies. NAP849 (A), NAP800 (B) and NAP830 (C) were tested against trypsin, chymotrypsin, and NE. Samples (approx. 0.01 μg) of each protease were incubated with the indicated concentrations of test compound for 2 min, in PBS, pH 7.4, at 37°C. (D) NAP858, NAP962 and NAP849 were tested against cathepsin B at the indicated concentrations in 0.1 M MES, pH 6.1, containing 1 mM EDTA, for 2 min, at 37°C. Aliquots (approx. 10 μL) of each incubation sample were then added to a fresh sample (990 μL) of PBS for the serine proteases and MES for cathepsin B, containing the appropriate substrate for each protease, to measure their residual activity. Controls incubations were performed in the absence of test compound, but in the presence of an appropriate volume of DMF vehicle used to prepare stock solutions of each inhibitor under study.
(§2) Two elements were investigated regarding possible “off-target” effects–determining the extent of cross-reactivity of each of the new putative ABPs between the various serine protease family members and assessing their collateral inhibitory action against another mechanistic class–the cysteine proteases, using cathepsin B (CTSB) as an exemplar.
(§3) For assays requiring a pre-incubation step enzyme and inhibitor in assay buffer were incubated together, at 37 °C, for 2 min, with gentle agitation. The reaction mixture was then aliquoted (50 μL) in duplicate on a black 96-well microtitre plate followed by addition of substrate to make a final concentration of 50 μM in a total volume of 100 μL. The fluorescence production was then measured as described for the previous procedure.
(§4) Figure ST1. Results of “off-target” studies. NAP559 and NAP533 were tested against chymotrypsin, and NE. Samples (approx. 0.01 mg) of each protease were incubated with the indicated concentrations of test compound for 2 min, in PBS, pH 7.4, at 37 °C. Aliquots (approx. 10 µL) of each incubation sample were then added to a fresh sample (990 µL) of PBS containing the appropriate substrate for each protease, to measure their residual activity. Controls incubations were performed in the absence of test compound, but in the presence of an appropriate volume of DMF vehicle used to prepare stock solutions of each inhibitor under study.

neutrophil elastase (NE) = target: T2, neutrophil elastase (NE) (Homo sapiens, UniProt P08246); test: Off-target study, residual activity after 2 min pre-incubation: NE; assay type: biochemical; details: 2 min incubation, PBS pH 7.4, 37°C; for off-target inhibition of neutrophil elastase: residual activity vs DMF control, NAP830 at concentrations up to 50 μM
T2 construct: purchased Calbiochem
T2 sequence (P08246 30-267): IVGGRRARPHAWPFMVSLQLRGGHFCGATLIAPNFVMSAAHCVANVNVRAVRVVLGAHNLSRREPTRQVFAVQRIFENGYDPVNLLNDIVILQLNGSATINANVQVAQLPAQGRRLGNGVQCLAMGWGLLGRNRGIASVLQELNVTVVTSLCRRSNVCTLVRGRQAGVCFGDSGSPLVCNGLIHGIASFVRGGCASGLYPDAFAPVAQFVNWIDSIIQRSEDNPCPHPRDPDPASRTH
Description: as §1, §2, §3, §4

Row | off-target inhibition of chymotrypsin (chymotrypsin) | off-target inhibition of neutrophil elastase (neutrophil elastase (NE)) | inhibition of chymotrypsin (chymotrypsin; highest concentration (50 μM)) | inhibition of NE (neutrophil elastase (NE); highest concentration (50 μM)) | SMILES
1 | no “off-target” effects | no “off-target” effects |  |  | NCCCCN(CC(=O)NCC(=O)NCC(=O)NCCCOCCOCCOCCCNC(=O)CCCCC1SCC2NC(=O)NC21)C(=O)ON1C(=O)CCC1=O (stereo not drawn) [NAP830, Succinimidoyl-CO-NLys-Gly-Gly-PEG-Biotin]
2 | no “off-target” or collateral inhibition |  |  |  | CC(C)N(CC(=O)NCC(=O)NCC(=O)NCCCOCCOCCOCCCNC(=O)CCCCC1SCC2NC(=O)NC21)C(=O)ON1C(=O)CCC1=O (stereo not drawn) [NAP800, Succinimidoyl-CO-NVal-Gly-Gly-PEG-Biotin]
3 |  | complete absence of inhibition |  |  | O=C(CCCCC1SCC2NC(=O)NC21)NCCCOCCOCCOCCCNC(=O)CNC(=O)CNC(=O)CN(Cc1ccccc1)C(=O)ON1C(=O)CCC1=O (stereo not drawn) [NAP849, Succinimidoyl-CO-NPhe-Gly-Gly-PEG-Biotin]
4 |  |  | < 5 % of control | < 5 % of control | N=C(N)NCCCN(CC(=O)N1CCC[C@H]1C(=O)N(CC(N)=O)Cc1ccccc1)C(=O)ON1C(=O)CCC1=O [NAP559, Succinimidoyl-CO-NArg-D-Pro-NPhe-NH2]
